Reference: ChEMBL document CHEMBL4011633, “Donepezil-Based Central Acetylcholinesterase Inhibitors by Means of a "Bio-Oxidizable" Prodrug Strategy: Design, Synthesis, and in Vitro Biological Evaluation” (J Med Chem, 2017)
Active and inactive are the calls of the source. The rule behind the calls is not given here.

What was measured:
Acetylcholinesterase [1] = target: T1, Acetylcholinesterase (Homo sapiens, UniProt P22303); assay: Inhibition of AChE in human erythrocytes using acetylthiocholine iodide as substrate preincubated for 5 mins followed by substrate addition measured every minute for 10 mins by Ellman's spectrophotometric method; format: cell-based
Cholinesterase = Cholinesterase (Equus caballus, UniProt P81908)
Description: Inhibition of equine serum BChE using butyrylthiocholine iodide as substrate preincubated for 5 mins followed by substrate addition measured every minute for 10 mins by Ellman's spectrophotometric method

[2] = Selectivity index, ratio of IC50 for equine serum BChE to IC50 for AChE in human erythrocytes; format: cell-based
Acetylcholinesterase [3] = target: T1, Acetylcholinesterase; assay: Inhibition of AChE (unknown origin)
[4] = Toxicity in ip dosed CD1 mouse assessed as mortality administered as qd after 48 hrs; format: organism-based; settings: in vivo
[5] = Prodrug activation in pH 7.4 PBS buffer at 25 uM assessed as (+/-)-1-[(3-Chlorophenyl)methyl]-4-[(5,6-dimethoxy-1-oxo-indan-2-yl)methyl]pyridin-1-ium-3-carboxamide Bromide formation after 180 mins in the presence of (+/-)-1-[(3-Chlorophenyl)methyl]-4-[(5,6-dimethoxy-1-oxo-indan-2-yl)methyl]pyridin-1-ium-3-carboxamide Bromide
Mus musculus [6] = assay: Toxicity in CD1 mouse assessed as change in spleen texture at 10 mg/kg, ip qd administered for 14 days by macroscopic method; format: organism-based; settings: in vivo, 336 h
Mus musculus [7] = assay: Toxicity in CD1 mouse heart at 10 mg/kg, ip qd administered daily for 14 days by microscopic method; format: organism-based; settings: in vivo, 336 h
Salmonella typhimurium [8] = assay: Genotoxicity in Salmonella typhimurium TAMix after 90 mins by Ames test; format: toxicity; settings: salmonella enterica subsp. enterica serovar typhimurium, 1.5 h
[9] = Prodrug activation in CD3OD solution assessed as (+/-)-1-[(3-Chlorophenyl)methyl]-4-[(5,6-dimethoxy-1-oxo-indan-2-yl)methyl]pyridin-1-ium-3-carboxamide Bromide formation at 10 mM after 4 to 10 mins in presence of DPPH radical solution by 1H NMR analysis
[10] = Effective permeability of compound at pH 7.4 at 100 uM after 4 hrs by PAMPA; format: physicochemical; settings: read-out: Peff
Mus musculus [11] = assay: Toxicity in CD1 mouse liver at 10 mg/kg, ip qd administered daily for 14 days by microscopic method; format: organism-based; settings: in vivo, 336 h
Mus musculus [12] = assay: Toxicity in CD1 mouse kidney at 10 mg/kg, ip qd administered daily for 14 days by microscopic method; format: organism-based; settings: in vivo, 336 h
[13] = Prodrug activation in 2% PBS NAD+ riboflavin at 25 uM assessed as (+/-)-1-[(3-Chlorophenyl)methyl]-4-[(5,6-dimethoxy-1-oxo-indan-2-yl)methyl]pyridin-1-ium-3-carboxamide Bromide formation after 180 mins in the presence of (+/-)-1-[(3-Chlorophenyl)methyl]-4-[(5,6-dimethoxy-1-oxo-indan-2-yl)methyl]pyridin-1-ium-3-carboxamide Bromide
Salmonella typhimurium [14] = assay: Genotoxicity in Salmonella typhimurium TA98 after 90 mins by Ames test; format: toxicity; settings: salmonella enterica subsp. enterica serovar typhimurium, 1.5 h
Mus musculus [15] = assay: Toxicity in CD1 mouse assessed as change in spleen texture at 10 mg/kg, ip qd administered for 14 days by microscopic method; format: organism-based; settings: in vivo, 336 h
[16] = Antioxidant activity assessed as DPPH free radical scavenging after 40 mins incubation in dark; format: functional
Mus musculus [17] = assay: Toxicity in CD1 mouse assessed as mortality at 10 mg/kg, ip qd administered daily for 14 days; format: organism-based; settings: in vivo, 336 h
Brain [18] = assay: Prodrug activation in CD1 mouse brain at 10 mg/kg, ip qd after 24 hrs by LC-MS/MS analysis; format: organism-based; settings: in vivo
Mus musculus [19] = assay: Toxicity in CD1 mouse kidney at 10 mg/kg, ip qd administered daily for 14 days by macroscopic method; format: organism-based; settings: in vivo, 336 h
Mus musculus [20] = assay: Toxicity in CD1 mouse heart at 10 mg/kg, ip qd administered daily for 14 days by macroscopic method; format: organism-based; settings: in vivo, 336 h
[21] = Prodrug activation in 2% PBS riboflavin at 25 uM assessed as (+/-)-1-[(3-Chlorophenyl)methyl]-4-[(5,6-dimethoxy-1-oxo-indan-2-yl)methyl]pyridin-1-ium-3-carboxamide Bromide formation after 180 mins in the presence of (+/-)-1-[(3-Chlorophenyl)methyl]-4-[(5,6-dimethoxy-1-oxo-indan-2-yl)methyl]pyridin-1-ium-3-carboxamide Bromide
Brain [22] = assay: Prodrug activation in CD1 mouse brain at 10 mg/kg, ip qd administered daily for 14 days by LC-MS/MS analysis; format: organism-based; settings: in vivo, 336 h
Mus musculus [23] = assay: Toxicity in CD1 mouse brain at 10 mg/kg, ip qd administered daily for 14 days by macroscopic method; format: organism-based; settings: in vivo, 336 h
Mus musculus [24] = assay: Toxicity in CD1 mouse liver at 10 mg/kg, ip qd administered daily for 14 days by macroscopic method; format: organism-based; settings: in vivo, 336 h
[25] = Prodrug activation in 10% methanolic silver nitrate at 25 uM assessed as (+/-)-1-[(3-Chlorophenyl)methyl]-4-[(5,6-dimethoxy-1-oxo-indan-2-yl)methyl]pyridin-1-ium-3-carboxamide Bromide formation after 180 mins in the presence of (+/-)-1-[(3-Chlorophenyl)methyl]-4-[(5,6-dimethoxy-1-oxo-indan-2-yl)methyl]pyridin-1-ium-3-carboxamide Bromide
Mus musculus [26] = assay: Toxicity in CD1 mouse brain at 10 mg/kg, ip qd administered daily for 14 days by microscopic method; format: organism-based; settings: in vivo, 336 h
[27] = Prodrug activation in 0.1% PBS NAD+ riboflavin at 25 uM assessed as (+/-)-1-[(3-Chlorophenyl)methyl]-4-[(5,6-dimethoxy-1-oxo-indan-2-yl)methyl]pyridin-1-ium-3-carboxamide Bromide formation after 180 mins in the presence of (+/-)-1-[(3-Chlorophenyl)methyl]-4-[(5,6-dimethoxy-1-oxo-indan-2-yl)methyl]pyridin-1-ium-3-carboxamide Bromide
SH-SY5Y = assay: Cytotoxicity against human SH-SY5Y cells assessed as […] in cell viability at 0.1 to 1 mM after 24 hrs by fluorescence assay; format: cell-based; settings: 1000 µM
[28] = target: Amyloid-beta precursor protein (Homo sapiens) (UniProt P05067); assay: Inhibition of amyloid beta (1 to 42 residues) (unknown origin) self-aggregation at 10 uM measured every 5 mins by ThT-fluorescence assay
Acetylcholinesterase [29] = target: T1, Acetylcholinesterase; assay: Inhibition of human recombinant AChE-induced human amyloid beta (1 to 40 residues) aggregation at 100 uM after 24 hrs by thioflavine T fluorescence method

T1 sequence (P22303 whole entry): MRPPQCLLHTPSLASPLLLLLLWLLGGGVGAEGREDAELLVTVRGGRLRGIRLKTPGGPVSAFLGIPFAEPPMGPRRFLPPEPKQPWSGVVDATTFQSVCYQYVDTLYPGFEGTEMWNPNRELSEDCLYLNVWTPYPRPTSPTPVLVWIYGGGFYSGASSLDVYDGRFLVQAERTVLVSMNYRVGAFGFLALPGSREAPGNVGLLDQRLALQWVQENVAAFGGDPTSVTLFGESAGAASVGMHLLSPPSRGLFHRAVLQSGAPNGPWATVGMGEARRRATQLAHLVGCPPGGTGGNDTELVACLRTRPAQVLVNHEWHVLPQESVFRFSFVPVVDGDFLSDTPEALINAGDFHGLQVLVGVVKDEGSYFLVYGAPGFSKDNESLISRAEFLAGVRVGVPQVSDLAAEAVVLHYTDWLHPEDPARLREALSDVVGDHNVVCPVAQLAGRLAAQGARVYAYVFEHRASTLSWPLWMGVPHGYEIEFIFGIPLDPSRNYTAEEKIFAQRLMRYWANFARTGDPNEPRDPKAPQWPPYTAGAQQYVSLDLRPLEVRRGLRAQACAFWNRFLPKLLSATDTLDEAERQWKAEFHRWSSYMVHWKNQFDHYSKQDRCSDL
Chain of Cholinesterase (P81908 whole entry): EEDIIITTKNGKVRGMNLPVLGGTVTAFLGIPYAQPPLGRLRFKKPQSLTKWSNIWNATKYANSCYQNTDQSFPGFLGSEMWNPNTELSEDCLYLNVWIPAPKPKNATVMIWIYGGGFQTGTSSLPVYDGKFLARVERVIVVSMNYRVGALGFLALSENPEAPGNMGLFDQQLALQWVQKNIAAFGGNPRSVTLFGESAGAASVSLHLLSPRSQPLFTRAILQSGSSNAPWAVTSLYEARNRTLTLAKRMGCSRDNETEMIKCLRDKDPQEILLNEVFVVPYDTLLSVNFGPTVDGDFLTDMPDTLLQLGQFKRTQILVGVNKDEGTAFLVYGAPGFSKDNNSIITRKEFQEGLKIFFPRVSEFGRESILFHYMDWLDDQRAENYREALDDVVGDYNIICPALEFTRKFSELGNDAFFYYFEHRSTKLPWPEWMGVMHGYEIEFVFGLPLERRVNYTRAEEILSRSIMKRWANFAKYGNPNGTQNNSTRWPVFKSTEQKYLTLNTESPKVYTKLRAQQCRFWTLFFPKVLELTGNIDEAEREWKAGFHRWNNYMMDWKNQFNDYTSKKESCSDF
Chain of Amyloid-beta precursor protein (Homo sapiens) (P05067 whole entry, the tested form may be a part): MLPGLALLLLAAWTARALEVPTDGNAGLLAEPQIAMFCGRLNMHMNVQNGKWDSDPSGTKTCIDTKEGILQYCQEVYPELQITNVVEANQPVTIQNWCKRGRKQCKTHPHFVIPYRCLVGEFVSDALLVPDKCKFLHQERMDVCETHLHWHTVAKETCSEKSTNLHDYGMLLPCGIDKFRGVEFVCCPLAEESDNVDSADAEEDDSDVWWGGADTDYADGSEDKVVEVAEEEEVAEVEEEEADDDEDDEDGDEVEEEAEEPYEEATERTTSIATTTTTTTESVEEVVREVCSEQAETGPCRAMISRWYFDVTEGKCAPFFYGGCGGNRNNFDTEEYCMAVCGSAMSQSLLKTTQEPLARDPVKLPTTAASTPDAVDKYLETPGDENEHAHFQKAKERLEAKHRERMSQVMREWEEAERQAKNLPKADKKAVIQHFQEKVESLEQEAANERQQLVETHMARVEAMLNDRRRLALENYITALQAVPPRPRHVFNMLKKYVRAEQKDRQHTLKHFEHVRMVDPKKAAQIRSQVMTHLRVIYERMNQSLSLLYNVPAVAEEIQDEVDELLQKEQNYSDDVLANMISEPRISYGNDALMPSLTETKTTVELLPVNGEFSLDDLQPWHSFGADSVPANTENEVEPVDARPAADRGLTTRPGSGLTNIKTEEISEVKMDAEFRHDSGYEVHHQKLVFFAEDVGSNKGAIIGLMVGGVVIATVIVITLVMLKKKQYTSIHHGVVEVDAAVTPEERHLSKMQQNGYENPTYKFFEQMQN

## COc1cc2c(cc1OC)C(=O)C(Cc1cc[n+](Cc3ccccc3C)cc1C(N)=O)C2 (racemic)
Acetylcholinesterase [1]
  IC50: 0.678 µM
Cholinesterase
  IC50: > 10 µM

## CC(=O)c1c[n+](Cc2ccccc2C)ccc1CC1Cc2cc(C)ccc2C1=O (racemic)
Acetylcholinesterase [1]
  IC50: 0.091 µM
[2]
  Ratio IC50: 41.9
Cholinesterase
  IC50: 3.81 µM

## COC(=O)c1cc2c(OC(=O)N(C)C)cccc2[n+](C)c1
Acetylcholinesterase [3]
  IC50: 0.02 µM

## CCN(C)C(=O)Oc1cccc([C@H](C)N(C)C)c1 [RIVASTIGMINE]
[4]
  LD50 at 48 h: 6.2 mg/kg

## CC(=O)c1c[n+](Cc2ccccc2C)ccc1CC1Cc2cc(Cl)ccc2C1=O (racemic)
[2]
  Ratio IC50: 13.9

## COc1cc2c(cc1OC)C(=O)C(CC1C=CN(Cc3cccc(Cl)c3)C=C1C(N)=O)C2 (stereo not given)
[5]
  Drug metabolism: 1.6%
Mus musculus [6]
  Activity: Non-Toxic
Mus musculus [7]
  Activity: Non-Toxic
Salmonella typhimurium [8]
  Activity: Non-Toxic
[9]
  Drug metabolism: Metabolite detected
[10]
  Papp at 4 h, 100 µM: 25.6 ×10⁻⁶ cm/s
Mus musculus [11]
  Activity: Non-Toxic
Mus musculus [12]
  Activity: Non-Toxic
[13]
  Drug metabolism: 39.6%
Salmonella typhimurium [14]
  Activity: Non-Toxic
Mus musculus [15]
  Activity: Non-Toxic
[4]
  LD50 at 48 h: > 50 mg/kg
[16]
  EC50: 90 µM
Mus musculus [17]
  Activity: Non-Toxic
Brain [18]
  Drug metabolism: Metabolite_Notdetected
Mus musculus [19]
  Activity: Non-Toxic
Acetylcholinesterase [1]
  IC50: > 1 µM
Mus musculus [20]
  Activity: Non-Toxic
[21]
  Drug metabolism: 77.9%
Brain [22]
  Drug metabolism: Metabolite_Notdetected
Mus musculus [23]
  Activity: Non-Toxic
Mus musculus [24]
  Activity: Non-Toxic
[25]
  Drug metabolism: 28%
Mus musculus [26]
  Activity: Non-Toxic
[27]
  Drug metabolism: 2.9%

## CC(=O)C1=CN(Cc2ccccc2C)C=CC1CC1Cc2cc(Cl)ccc2C1=O (stereo not given)
Acetylcholinesterase [1]
  IC50: > 1 µM

## COc1cc2c(cc1OC)C(=O)C(Cc1cc[n+](Cc3cccc(C)c3)cc1C(C)=O)C2 (racemic)
Acetylcholinesterase [1]
  IC50: 0.014 µM
[2]
  Ratio IC50: 427
Cholinesterase
  IC50: 5.99 µM

## CNC(=O)c1c[n+](Cc2ccccc2C)ccc1CC1Cc2cc(OC)c(OC)cc2C1=O (racemic)
Acetylcholinesterase [1]
  IC50: 1 to 10 µM

## CC(=O)c1c[n+](Cc2ccccc2C)ccc1CC1Cc2cc(C)c(C)cc2C1=O (racemic)
Acetylcholinesterase [1]
  IC50: 0.0277 µM
[2]
  Ratio IC50: 6.95

## COc1cc2c(cc1OC)C(=O)C(Cc1cc[n+](Cc3cccc(Cl)c3)cc1C(C)=O)C2 (racemic)
Acetylcholinesterase [1]
  IC50: 0.00327 µM
[2]
  Ratio IC50: 1020

## COc1cc2c(cc1OC)C(=O)C(Cc1cc[n+](Cc3cccc(Cl)c3)cc1C(N)=O)C2.[Br-] (racemic)
Salmonella typhimurium [8]
  Activity: Non-Toxic
[10]
  Papp at 4 h, 100 µM: 0.15 ×10⁻⁶ cm/s
SH-SY5Y
  Activity: Non-Toxic
[28]
  inhibition: 25%
Salmonella typhimurium [14]
  Activity: Non-Toxic
[4]
  LD50 at 48 h: 70 mg/kg
Acetylcholinesterase [1]
  IC50: 0.041 µM
Cholinesterase
  IC50: > 10 µM
Acetylcholinesterase [29]
  inhibition: 41%

## COc1cc2c(cc1OC)C(=O)C(Cc1cc[n+](Cc3ccccc3Cl)cc1C(C)=O)C2 (racemic)
Acetylcholinesterase [1]
  IC50: 0.018 µM
[2]
  Ratio IC50: 106
Cholinesterase
  IC50: 1.92 µM

## COC(=O)C1=CN(C)c2cccc(OC(=O)N(C)C)c2C1
Acetylcholinesterase [3]
  IC50: > 1000 µM

## COc1ccc2c(c1)CC(Cc1cc[n+](Cc3ccccc3C)cc1C(C)=O)C2=O.[Br-] (racemic)
[10]
  Papp at 4 h, 100 µM: 0.3 ×10⁻⁶ cm/s
[2]
  Ratio IC50: 133

## CC(=O)C1=CN(Cc2ccccc2C)C=CC1CC1Cc2cc(C)ccc2C1=O (stereo not given)
Acetylcholinesterase [1]
  IC50: > 1 µM

## COc1cc2c(cc1OC)C(=O)C(CC1CCN(Cc3ccccc3)CC1)C2 (stereo not given) [DONEPEZIL]
[4]
  LD50 at 48 h: 22.5 mg/kg
[16]
  Activity: inactive

## COC(=O)c1c[n+](Cc2ccccc2)ccc1CC1Cc2cc(OC)c(OC)cc2C1=O (racemic)
Acetylcholinesterase [1]
  IC50: 0.0256 µM
[2]
  Ratio IC50: 119
Cholinesterase
  IC50: 3.06 µM

## CC(=O)C1=CN(Cc2ccccc2C)C=CC1CC1Cc2cc3c(cc2C1=O)OCO3 (stereo not given)
[10]
  Papp at 4 h, 100 µM: 14.3 ×10⁻⁶ cm/s
Acetylcholinesterase [1]
  IC50: > 1 µM

## CC(=O)c1c[n+](Cc2ccccc2C)ccc1CC1Cc2cc3c(cc2C1=O)OCO3 (racemic)
[2]
  Ratio IC50: 26.9

## CNC(=O)c1c[n+](Cc2ccccc2)ccc1CC1Cc2cc(OC)c(OC)cc2C1=O (racemic)
Acetylcholinesterase [1]
  IC50: > 1 µM
Cholinesterase
  IC50: 4.77 µM

## COc1cc2c(cc1OC)C(=O)C(Cc1cc[n+](Cc3ccccc3)cc1C#N)C2 (racemic)
Acetylcholinesterase [1]
  IC50: 0.00292 µM

## COC(=O)c1c[n+](Cc2ccccc2C)ccc1CC1Cc2cc(OC)c(OC)cc2C1=O (racemic)
Acetylcholinesterase [1]
  IC50: 0.0058 µM
[2]
  Ratio IC50: 309
Cholinesterase
  IC50: 1.79 µM

## COc1ccc2c(c1)CC(CC1C=CN(Cc3ccccc3C)C=C1C(C)=O)C2=O (stereo not given)
[10]
  Papp at 4 h, 100 µM: 14.8 ×10⁻⁶ cm/s
Acetylcholinesterase [1]
  IC50: > 1 µM

## COc1cc2c(cc1OC)C(=O)C(CC1C=CN(Cc3ccccc3C)C=C1C(N)=O)C2 (stereo not given)
Acetylcholinesterase [1]
  IC50: > 1 µM
